Laboratory results: patent US10947188B2, “Small molecule ferroptosis inducers” (THE TRUSTEES OF COLUMBIA UNIVERSITY IN THE CITY OF NEW YORK, priority 2016, dated 2021)

Experiments:
HT-1080 = assay: Modulatory profiling: Alamar Blue viability, lethal compound cotreated with death modulator (EC50, AUC); type: cell-based; design: AUC, modulator HT.3MA / AUC, modulator HT.ALLN / AUC HT.ATA / AUC HT.ActD / AUC HT.BHA / AUC HT.BHT / AUC HT.BocD / AUC HT.CHX / AUC HT.Co2+ / AUC HT.DPQ / AUC HT.EGTA / AUC HT.Lmim / AUC HT.NAD+ / AUC HT.Nec-1 / AUC HT.SP600125 / AUC HT.TLCK / AUC HT.U0126: unit not given beside the values; conditions: for AUC HT.ATA: HT-1080, modulator ATA; for AUC HT.ActD: HT-1080, modulator ActD; for AUC HT.BHA: HT-1080, modulator BHA; for AUC HT.BHT: HT-1080, modulator BHT; for AUC HT.BocD: HT-1080, modulator BocD; for AUC HT.CHX: HT-1080, modulator CHX; for AUC HT.Co2+: HT-1080, modulator Co2+; for AUC HT.CspA: HT-1080, modulator CspA; for AUC HT.DPQ: HT-1080, modulator DPQ; for AUC HT.EGTA: HT-1080, modulator EGTA; for AUC HT.Gd3+: HT-1080, modulator Gd3+; for AUC HT.LNAME: HT-1080, modulator LNAME; for AUC HT.Lmim: HT-1080, modulator Lmim; for AUC HT.NAD+: HT-1080, modulator NAD+; for AUC HT.NMMA: HT-1080, modulator NMMA; for HT.atoc (AUC) / HT.bCarotene (AUC) / HT.deferox (AUC) / HT.digoxin (AUC) / HT.trolox (AUC) / HT.zVAD (AUC): HT-1080; for HT.atoc (AUC): modulator atoc; for HT.bCarotene (AUC): modulator bCarotene; for HT.deferox (AUC): modulator deferox; for HT.digoxin (AUC): modulator digoxin; for HT.trolox (AUC): modulator trolox; for HT.zVAD (AUC): modulator zVAD; for AUC HT.BHA: reference of the scale not given here; for AUC HT.EGTA: reference of the scale not given here
BJeLR = assay: as above; type: cell-based, human; design: AUC, modulator BJ.Gd3+ / AUC, modulator BJ.LNAME / AUC, modulator BJ.Lmin / AUC, modulator BJ.3MA / AUC, modulator BJ.ALLN / AUC, modulator BJ.Boc D / AUC, modulator BJ.CHX / AUC, modulator BJ.Co2+ / AUC, modulator BJ.Nec-1 / AUC, modulator BJ.Pepstatin / AUC, modulator BJ.TLCK / AUC, modulator BJ.atoc / AUC, modulator BJ.trolox / AUC, modulator BJ.zVAD: unit not given beside the values; conditions: BJeLR cells, modulatory profile value (AUC); for AUC, modulator BJ.3MA: lethal compound cotreated with modulator 3MA; for AUC, modulator BJ.ALLN: lethal compound cotreated with modulator ALLN; for AUC, modulator BJ.Boc D: lethal compound cotreated with modulator Boc D; for AUC, modulator BJ.CHX: lethal compound cotreated with modulator CHX; for AUC, modulator BJ.Co2+: lethal compound cotreated with modulator Co2+; for AUC, modulator BJ.DPQ: lethal compound cotreated with modulator DPQ; for AUC, modulator BJ.Gd3+: lethal compound cotreated with modulator Gd3+; for AUC, modulator BJ.LNAME: lethal compound cotreated with modulator LNAME; for AUC, modulator BJ.Lmin/NAD+: lethal compound cotreated with modulator Lmin/NAD+; for AUC, modulator BJ.Lmin: lethal compound cotreated with modulator Lmin; for AUC, modulator BJ.NAD+: lethal compound cotreated with modulator NAD+; for AUC, modulator BJ.NMMA: lethal compound cotreated with modulator NMMA; for AUC, modulator BJ.Nec-1: lethal compound cotreated with modulator Nec-1; for AUC, modulator BJ.Pepstatin: lethal compound cotreated with modulator Pepstatin; for AUC, modulator BJ.TLCK: lethal compound cotreated with modulator TLCK; for AUC, modulator BJ.3MA: reference of the scale not given here; for AUC, modulator BJ.ALLN: reference of the scale not given here; for AUC, modulator BJ.Boc D: reference of the scale not given here; for AUC, modulator BJ.CHX: reference of the scale not given here; for AUC, modulator BJ.Co2+: reference of the scale not given here; for AUC, modulator BJ.DPQ: reference of the scale not given here; for AUC, modulator BJ.Gd3+: reference of the scale not given here; for AUC, modulator BJ.LNAME: reference of the scale not given here; for AUC, modulator BJ.NAD+: reference of the scale not given here; for AUC, modulator BJ.NMMA: reference of the scale not given here; for AUC, modulator BJ.Nec-1: reference of the scale not given here; for AUC, modulator BJ.Pepstatin: reference of the scale not given here; for AUC, modulator BJ.TLCK: reference of the scale not given here

Row | SMILES | AUC HT.ATA (HT-1080) | AUC HT.ActD (HT-1080) | AUC HT.BHA (HT-1080) | AUC HT.BHT (HT-1080) | AUC HT.BocD (HT-1080) | AUC HT.CHX (HT-1080) | AUC HT.Co2+ (HT-1080) | AUC HT.CspA (HT-1080) | AUC HT.DPQ (HT-1080) | AUC HT.EGTA (HT-1080) | AUC HT.Gd3+ (HT-1080) | AUC HT.LNAME (HT-1080) | AUC HT.Lmim (HT-1080) | AUC HT.NAD+ (HT-1080) | AUC HT.NMMA (HT-1080) | HT.atoc (AUC) (HT-1080) | HT.bCarotene (AUC) (HT-1080) | HT.deferox (AUC) (HT-1080) | HT.digoxin (AUC) (HT-1080) | HT.trolox (AUC) (HT-1080) | also measured
1 | COc1ccc(C(=O)C(CN2CCCC2)c2ccccc2)cc1 (stereo not drawn) [CIL72] | 0.05533 | 0.02924 | −0.04013 | −0.1002 | −0.02415 | 0.1147 | 0.1163 | −0.01912 | −0.03157 | 0.009608 | −9.532E−05 | 0.01226 | −0.001821 | 0.004195 | −0.004443 | −0.02111 | −0.01233 | 0.1972 | −0.01413 | −0.03591 | HT.zVAD (AUC) (HT-1080): 0.05314; AUC, modulator BJ.3MA (BJeLR): 0.01714; AUC, modulator BJ.ALLN (BJeLR): 0.00459; AUC, modulator BJ.Boc D (BJeLR): 0.02672; AUC, modulator BJ.CHX (BJeLR): 0.2585; AUC, modulator BJ.Co2+ (BJeLR): 0.1176; AUC, modulator BJ.DPQ (BJeLR): −0.01087; AUC, modulator BJ.Gd3+ (BJeLR): 0.03013; AUC, modulator BJ.LNAME (BJeLR): 0.001053; AUC, modulator BJ.Lmin/NAD+ (BJeLR): 0.07102; AUC, modulator BJ.Lmin (BJeLR): 0.004844; AUC, modulator BJ.NAD+ (BJeLR): −0.0366; AUC, modulator BJ.NMMA (BJeLR): 0.01422; AUC, modulator BJ.Nec-1 (BJeLR): −0.02464; AUC, modulator BJ.Pepstatin (BJeLR): 0.01988; AUC, modulator BJ.TLCK (BJeLR): 0.03641
2 | Cc1[nH]c2c(ccc3ccccc32)c1C1C(CCN)C1(C)C (stereo not drawn) [CIL74] | 0.01362 | 0.02636 | −0.08659 | −0.04572 | 0.01242 | 0.02524 | 0.03244 | −0.004622 | 0.04847 | −0.02674 | −0.008213 | 0.01925 | 0.02034 | 0.07664 | 9.3282E−05 | 0.07412 | −0.02032 | −0.008945 | −0.02586 | −0.0236 | HT.zVAD (AUC) (HT-1080): 0.01022; AUC, modulator BJ.3MA (BJeLR): 0.03615; AUC, modulator BJ.ALLN (BJeLR): −0.02536; AUC, modulator BJ.Boc D (BJeLR): 0.04324; AUC, modulator BJ.CHX (BJeLR): 0.01466; AUC, modulator BJ.Co2+ (BJeLR): 0.2135; AUC, modulator BJ.DPQ (BJeLR): −0.02906; AUC, modulator BJ.Gd3+ (BJeLR): 0.02963; AUC, modulator BJ.LNAME (BJeLR): 0.001619; AUC, modulator BJ.Lmin/NAD+ (BJeLR): 0.07154; AUC, modulator BJ.Lmin (BJeLR): 0.007766; AUC, modulator BJ.NAD+ (BJeLR): −0.05906; AUC, modulator BJ.NMMA (BJeLR): 0.01059; AUC, modulator BJ.Nec-1 (BJeLR): −0.02489; AUC, modulator BJ.Pepstatin (BJeLR): 0.08294; AUC, modulator BJ.TLCK (BJeLR): −0.02942
